Experimental data reported in ChEMBL document CHEMBL3351957, “Synthesis and pharmacological evaluation of optically pure, novel carbonyl guanidine derivatives as dual 5-HT2B and 5-HT7 receptor antagonists” (Bioorg Med Chem, 2014).
Calls of active or inactive are those of the source. The rule behind the calls is not given here.

Tests used:
[1] = biological target: 5-hydroxytryptamine receptor 7 (Homo sapiens, UniProt P34969); assay: Displacement of [3H]5-HT from human 5-HT7 receptor expressed in CHO cells; type: cell-based
[2] = biological target: T1, 5-hydroxytryptamine receptor 2B (Homo sapiens, UniProt P41595); assay: Displacement of [3H]mesulergine from human 5-HT2B receptor expressed in HEK293 cells; type: cell-based
[3] = system: Mus musculus; assay: Reversal of 5-CT-induced hypothermic effect in po dosed mouse assessed as minimum effective dose; type: functional; conditions: for minimal effective dose: read-out: MED
[4] = system: Cavia porcellus; assay: Suppression of 5-HT-induced dural protein extravasation in Hartley guinea pig at 10 mg/kg, po; type: functional, organism-based; parameters: dose 10 mg/kg
[5] = biological target: T1, 5-hydroxytryptamine receptor 2B; assay: Antagonist activity at human 5-HT2B receptor expressed in HEK293 cells assessed as [3H]PI metabolism; type: cell-based
[6] = system: Cavia porcellus; assay: Suppression of 5-HT-induced dural protein extravasation in po dosed Hartley guinea pig; type: functional, organism-based
[7] = biological target: 5-hydroxytryptamine receptor 2A (Homo sapiens, UniProt P28223); assay: Binding affinity to serotonin 5-HT2A receptor (unknown origin)
[8] = biological target: T2, 5-hydroxytryptamine receptor 2C (Homo sapiens, UniProt P28335); assay: Binding affinity to serotonin 5-HT2C receptor (unknown origin)
T2 sequence (P28335 whole entry): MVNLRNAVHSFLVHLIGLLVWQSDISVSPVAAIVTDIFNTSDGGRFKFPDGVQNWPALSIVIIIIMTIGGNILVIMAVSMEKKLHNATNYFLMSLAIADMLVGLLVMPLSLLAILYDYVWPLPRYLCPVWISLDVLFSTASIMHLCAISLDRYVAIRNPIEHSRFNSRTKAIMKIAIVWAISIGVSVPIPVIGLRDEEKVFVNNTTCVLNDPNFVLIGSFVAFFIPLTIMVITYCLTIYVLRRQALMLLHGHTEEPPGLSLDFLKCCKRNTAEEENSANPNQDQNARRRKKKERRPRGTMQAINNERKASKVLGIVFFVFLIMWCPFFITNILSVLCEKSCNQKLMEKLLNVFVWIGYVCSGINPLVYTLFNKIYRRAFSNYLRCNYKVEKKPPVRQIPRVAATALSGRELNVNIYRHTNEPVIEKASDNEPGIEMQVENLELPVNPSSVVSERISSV

[9] = biological target: D(2) dopamine receptor (Homo sapiens, UniProt P14416); assay: Binding affinity to dopamine D2 receptor (unknown origin)
[10] = biological target: T3, Muscarinic acetylcholine receptor M5 (Homo sapiens, UniProt P08912); assay: Binding affinity to muscarinic M5 receptor (unknown origin)
T3 sequence (P08912 whole entry): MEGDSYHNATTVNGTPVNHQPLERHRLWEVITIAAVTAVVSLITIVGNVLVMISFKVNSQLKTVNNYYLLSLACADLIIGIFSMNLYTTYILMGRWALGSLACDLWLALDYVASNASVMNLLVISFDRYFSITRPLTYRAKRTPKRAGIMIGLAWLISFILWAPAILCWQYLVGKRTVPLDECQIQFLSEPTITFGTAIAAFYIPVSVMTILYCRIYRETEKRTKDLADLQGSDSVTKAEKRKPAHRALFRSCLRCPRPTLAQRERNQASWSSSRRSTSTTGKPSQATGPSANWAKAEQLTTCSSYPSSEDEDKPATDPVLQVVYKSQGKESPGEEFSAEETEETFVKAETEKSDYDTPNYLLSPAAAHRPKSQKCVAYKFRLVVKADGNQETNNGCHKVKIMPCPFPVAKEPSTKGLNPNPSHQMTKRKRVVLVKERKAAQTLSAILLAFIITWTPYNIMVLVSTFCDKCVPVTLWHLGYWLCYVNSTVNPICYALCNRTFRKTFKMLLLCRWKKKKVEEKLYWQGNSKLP

[11] = biological target: T4, Adrenergic receptor alpha-1 (Homo sapiens, UniProt P35348+P25100+P35368); assay: Binding affinity to alpha1-adrenergic receptor (unknown origin)
T4 sequence (P35348 whole entry): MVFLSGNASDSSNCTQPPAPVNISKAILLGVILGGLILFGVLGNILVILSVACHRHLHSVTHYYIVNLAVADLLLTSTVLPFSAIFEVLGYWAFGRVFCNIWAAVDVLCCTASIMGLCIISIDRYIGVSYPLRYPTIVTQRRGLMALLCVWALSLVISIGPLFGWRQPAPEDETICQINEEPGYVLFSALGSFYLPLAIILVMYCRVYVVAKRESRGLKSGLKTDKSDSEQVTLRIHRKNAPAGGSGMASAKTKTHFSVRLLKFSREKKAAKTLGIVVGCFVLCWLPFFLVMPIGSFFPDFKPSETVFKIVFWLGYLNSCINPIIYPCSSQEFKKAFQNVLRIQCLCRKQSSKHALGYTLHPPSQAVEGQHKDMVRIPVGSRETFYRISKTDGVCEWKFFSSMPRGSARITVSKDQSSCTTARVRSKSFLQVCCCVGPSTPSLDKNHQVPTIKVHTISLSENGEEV
T4 sequence (P25100 whole entry): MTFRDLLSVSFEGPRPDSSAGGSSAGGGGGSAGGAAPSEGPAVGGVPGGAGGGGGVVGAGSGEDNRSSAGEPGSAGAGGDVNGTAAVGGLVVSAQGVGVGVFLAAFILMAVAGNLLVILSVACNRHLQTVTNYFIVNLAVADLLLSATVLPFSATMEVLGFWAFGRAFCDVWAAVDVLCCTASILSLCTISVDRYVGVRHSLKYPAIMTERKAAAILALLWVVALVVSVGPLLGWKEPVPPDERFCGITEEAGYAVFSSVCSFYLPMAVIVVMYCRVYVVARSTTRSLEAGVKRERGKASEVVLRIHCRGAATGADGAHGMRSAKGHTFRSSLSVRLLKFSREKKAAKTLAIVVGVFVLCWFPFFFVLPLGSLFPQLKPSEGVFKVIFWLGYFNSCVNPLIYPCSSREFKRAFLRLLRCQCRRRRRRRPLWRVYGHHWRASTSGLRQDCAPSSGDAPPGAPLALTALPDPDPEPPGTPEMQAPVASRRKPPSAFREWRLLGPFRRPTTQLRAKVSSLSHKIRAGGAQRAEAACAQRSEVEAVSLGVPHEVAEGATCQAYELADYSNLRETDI
T4 sequence (P35368 whole entry): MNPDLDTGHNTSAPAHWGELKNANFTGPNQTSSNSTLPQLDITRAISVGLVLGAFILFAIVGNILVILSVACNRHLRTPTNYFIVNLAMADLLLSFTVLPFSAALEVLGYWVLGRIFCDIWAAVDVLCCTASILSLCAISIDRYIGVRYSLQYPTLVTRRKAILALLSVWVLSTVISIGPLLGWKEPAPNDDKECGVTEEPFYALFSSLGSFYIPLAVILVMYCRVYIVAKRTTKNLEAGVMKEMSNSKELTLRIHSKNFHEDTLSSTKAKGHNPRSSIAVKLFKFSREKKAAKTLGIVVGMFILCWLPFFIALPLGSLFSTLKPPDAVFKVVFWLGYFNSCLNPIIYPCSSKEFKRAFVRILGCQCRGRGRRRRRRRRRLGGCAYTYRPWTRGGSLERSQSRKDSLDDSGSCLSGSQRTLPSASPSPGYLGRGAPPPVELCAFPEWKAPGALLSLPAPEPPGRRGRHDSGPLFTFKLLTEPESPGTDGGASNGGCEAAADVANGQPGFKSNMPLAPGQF

Chain of 5-hydroxytryptamine receptor 7 (P34969 whole entry): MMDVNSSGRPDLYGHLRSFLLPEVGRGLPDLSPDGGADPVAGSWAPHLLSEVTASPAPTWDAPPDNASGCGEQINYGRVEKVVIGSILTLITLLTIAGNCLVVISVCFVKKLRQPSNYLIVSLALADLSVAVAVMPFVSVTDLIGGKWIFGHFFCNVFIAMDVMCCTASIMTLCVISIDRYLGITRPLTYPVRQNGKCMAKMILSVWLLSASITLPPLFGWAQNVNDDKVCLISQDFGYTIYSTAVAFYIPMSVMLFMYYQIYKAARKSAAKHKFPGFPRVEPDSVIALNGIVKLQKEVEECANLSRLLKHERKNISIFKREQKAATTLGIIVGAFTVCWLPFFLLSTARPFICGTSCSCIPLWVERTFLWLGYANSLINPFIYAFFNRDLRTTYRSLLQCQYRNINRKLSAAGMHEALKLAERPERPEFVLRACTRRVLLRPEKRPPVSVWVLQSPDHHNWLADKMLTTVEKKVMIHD
T1 sequence (P41595 whole entry): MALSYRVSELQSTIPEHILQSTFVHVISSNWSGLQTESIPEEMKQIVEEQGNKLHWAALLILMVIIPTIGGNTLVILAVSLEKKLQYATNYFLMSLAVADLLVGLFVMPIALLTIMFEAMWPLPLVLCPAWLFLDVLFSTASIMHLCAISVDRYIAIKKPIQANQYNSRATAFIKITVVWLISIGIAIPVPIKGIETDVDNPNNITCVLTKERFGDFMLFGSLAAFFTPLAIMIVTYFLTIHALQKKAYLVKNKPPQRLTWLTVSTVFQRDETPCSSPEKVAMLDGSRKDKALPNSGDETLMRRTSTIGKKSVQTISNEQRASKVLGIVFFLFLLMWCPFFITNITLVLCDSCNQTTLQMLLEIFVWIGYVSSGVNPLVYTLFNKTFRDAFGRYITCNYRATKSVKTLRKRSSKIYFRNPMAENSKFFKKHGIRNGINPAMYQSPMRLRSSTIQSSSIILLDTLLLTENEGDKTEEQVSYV
Chain of D(2) dopamine receptor (P14416 whole entry): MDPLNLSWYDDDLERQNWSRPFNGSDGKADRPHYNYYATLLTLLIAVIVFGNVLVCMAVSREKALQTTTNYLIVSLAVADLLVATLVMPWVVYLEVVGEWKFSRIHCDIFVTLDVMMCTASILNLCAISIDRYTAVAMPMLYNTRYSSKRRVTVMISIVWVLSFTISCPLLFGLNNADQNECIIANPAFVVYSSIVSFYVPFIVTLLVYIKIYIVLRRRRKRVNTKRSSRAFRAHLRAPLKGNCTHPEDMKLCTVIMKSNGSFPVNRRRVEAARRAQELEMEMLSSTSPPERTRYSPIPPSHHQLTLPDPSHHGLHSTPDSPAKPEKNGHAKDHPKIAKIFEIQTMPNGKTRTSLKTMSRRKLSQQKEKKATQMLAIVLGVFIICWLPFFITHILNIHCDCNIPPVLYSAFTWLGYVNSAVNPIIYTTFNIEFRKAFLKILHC
Chain of 5-hydroxytryptamine receptor 2A (P28223 whole entry): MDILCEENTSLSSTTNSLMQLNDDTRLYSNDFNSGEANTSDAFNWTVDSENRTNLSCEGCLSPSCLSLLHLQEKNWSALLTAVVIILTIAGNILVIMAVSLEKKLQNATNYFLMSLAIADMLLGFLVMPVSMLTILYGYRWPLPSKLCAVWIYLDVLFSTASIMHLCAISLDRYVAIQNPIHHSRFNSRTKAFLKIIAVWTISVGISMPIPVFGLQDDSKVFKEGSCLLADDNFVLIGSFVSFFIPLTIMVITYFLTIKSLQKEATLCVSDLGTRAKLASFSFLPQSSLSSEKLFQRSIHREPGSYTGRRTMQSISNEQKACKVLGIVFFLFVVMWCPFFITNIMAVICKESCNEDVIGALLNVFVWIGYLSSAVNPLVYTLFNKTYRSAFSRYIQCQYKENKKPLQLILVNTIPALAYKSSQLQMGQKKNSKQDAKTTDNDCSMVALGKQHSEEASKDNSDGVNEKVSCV

Compound | Ki [1] [nM] | Ki [2] [nM] | minimal effective dose [3] [mg/kg] | other results
CC1(O)c2ccccc2-c2ccc(C(=O)N=C(N)N)cc21.Cl (stereo not drawn) |  |  | 30 | 
COC1(C)c2ccccc2-c2ccc(C(=O)N=C(N)N)cc21.Cl (stereo not drawn) | 1.4 | 3.3 | 30 | 
NC(N)=NC(=O)c1ccc2c(c1)[C@]1(CCCO1)c1ccccc1-2 |  | 2.7 |  | inhibition [4]: Active; IC50 [5]: 35 nM; inhibition [6]: Dose-dependent effect
Cl.NC(N)=NC(=O)c1ccc2c(c1)C1(CCCC1)c1ccccc1-2 | 1.8 | 1.7 | ≤ 100 | 
NC(N)=NC(=O)c1ccc2c(c1)[C@@]1(CCCO1)c1ccccc1-2 |  | 5.1 |  | inhibition [4]: Active; IC50 [5]: 73 nM; inhibition [6]: Dose-dependent effect
Cl.NC(N)=NC(=O)c1ccc2c(c1)C1(CCCO1)c1ccccc1-2 (stereo not drawn) |  | 5.1 | 3 | Ki [7]: > 1000 nM; Ki [8]: 152 nM; Ki [9]: > 1000 nM; IC50 [5]: 55 nM; Ki [10]: > 1000 nM; Ki [11]: > 1000 nM
COCC1(OC)c2ccccc2-c2ccc(C(=O)N=C(N)N)cc21.Cl (stereo not drawn) | 0.76 | 2 | > 30 | 
NC(N)=NC(=O)c1ccc2c(c1)C1(CCOCC1)c1ccccc1-2 | 1.3 | 9.1 |  | 

The next lines start with results.

Ki [1] [nM] | Ki [2] [nM] | Compound | minimal effective dose [3] [mg/kg] | other results
1.2 | 41 | CCC1(O)c2ccccc2-c2ccc(C(=O)N=C(N)N)cc21 (stereo not drawn) |  | 
4.9 | 0.51 | NC(N)=NC(=O)c1ccc2c(c1)C1(CC1)c1ccccc1-2 |  | MED [3]: inactive
> 100 | 31 | CCCCC1(O)c2ccccc2-c2ccc(C(=O)N=C(N)N)cc21 (stereo not drawn) |  | 
0.6 | 4.8 | CCC1(OC)c2ccccc2-c2ccc(C(=O)N=C(N)N)cc21.Cl (stereo not drawn) | 10 | 
